The subject of assay [1] is Rattus norvegicus. Kind of assay: Antiinflammatory activity in rat adjuvant-induced arthritis model assessed as mean surface area of paw at 50 mg/kg/day administered via gavage relative to control. The class given is functional.
In assay [2] the test system is Rattus norvegicus. Kind of assay: Antiinflammatory activity in rat assessed as inhibition of carrageenan-induced paw edema at 250 mg/kg administered via gavage relative to control. Format: functional. On the technique in general: In the carrageenan paw model, swelling and tenderness develop within hours.
Assay [3] relates to Rattus norvegicus. Kind of assay: Antiinflammatory activity in rat adjuvant-induced arthritis model assessed as mean surface area of paw at 250 mg/kg administered via gavage relative to control. Format: functional, organism-based. On the set-up: dose 250 mg/kg.
In assay [4] the test system is Rattus norvegicus. Kind of assay: Antiinflammatory activity in rat adjuvant-induced arthritis model assessed as mean surface area of paw at 400 mg/kg/day administered via gavage relative to control. The class given is functional.
Assay [5] concerns Rattus norvegicus. Kind of assay: Antiinflammatory activity in rat assessed as inhibition of carrageenan-induced paw edema at 50 mg/kg administered via gavage relative to control. The class given is functional.

The source made the active and inactive calls. The calls are words filed in the database; no cut-off is given here.

In the case of `Fc1ccc(-c2nncnn2)cc1`, in the assay on Rattus norvegicus [1], the Ratio came to 0.46. In addition, in the assay on Rattus norvegicus [2], the C/T was 2.8.

In the case of `Clc1ccc(-c2nncnn2)cc1`, the Ratio in the assay with Rattus norvegicus [1] came out at 0.54. Moreover, in the assay on Rattus norvegicus [2], the C/T was 3.07.

As to `Fc1ccc(-c2nccnn2)cc1`, in the assay with Rattus norvegicus [3], the result was inactive. For the same compound, in the assay on Rattus norvegicus [2], the C/T was 2.67.

For `CC(=O)Oc1ccccc1C(=O)O` [ASPIRIN], the Ratio with Rattus norvegicus [4] is 0.55. Further, the C/T in the assay on Rattus norvegicus [5] is recorded as 2.8.

As to `Clc1ccc(-c2nccnn2)cc1`, the result with Rattus norvegicus [3] was inactive. The C/T in the assay on Rattus norvegicus [2] stood at 2.25.

(Values after ChEMBL document CHEMBL3243933, “3-Aryl-as-triazines as potential antiinflammatory agents” (1977).)
